Experiment [1] has as its target T1, human RET kinase (Homo sapiens, UniProt P07949).
T1 construct: purchased Carna 08-159
Kind of experiment: RET Kinase Assay (LanthaScreen TR-FRET enzymatic assay). The class given is biochemical. To be noted: 7 nM RET, 23 μM ATP. Put shortly: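 TR-FRET enzymatic read-out using 23 μM ATP, 3 μM FAM-P2 substrate and 7 nM human RET, after 15-min compound pretreatment at room temperature and a 1 h reaction at 28° C in HEPES pH 7.5 buffer. Percent of DMSO control fitted to nonlinear sigmoid curves for IC50.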
(Time-resolved FRET reads energy transfer from a long-lived donor to a nearby acceptor.)

In experiment [2] the target is T2, human KDR kinase (Homo sapiens, UniProt P35968).
T2 construct: purchased Carna 08-191
T2 sequence (P35968 20-1356): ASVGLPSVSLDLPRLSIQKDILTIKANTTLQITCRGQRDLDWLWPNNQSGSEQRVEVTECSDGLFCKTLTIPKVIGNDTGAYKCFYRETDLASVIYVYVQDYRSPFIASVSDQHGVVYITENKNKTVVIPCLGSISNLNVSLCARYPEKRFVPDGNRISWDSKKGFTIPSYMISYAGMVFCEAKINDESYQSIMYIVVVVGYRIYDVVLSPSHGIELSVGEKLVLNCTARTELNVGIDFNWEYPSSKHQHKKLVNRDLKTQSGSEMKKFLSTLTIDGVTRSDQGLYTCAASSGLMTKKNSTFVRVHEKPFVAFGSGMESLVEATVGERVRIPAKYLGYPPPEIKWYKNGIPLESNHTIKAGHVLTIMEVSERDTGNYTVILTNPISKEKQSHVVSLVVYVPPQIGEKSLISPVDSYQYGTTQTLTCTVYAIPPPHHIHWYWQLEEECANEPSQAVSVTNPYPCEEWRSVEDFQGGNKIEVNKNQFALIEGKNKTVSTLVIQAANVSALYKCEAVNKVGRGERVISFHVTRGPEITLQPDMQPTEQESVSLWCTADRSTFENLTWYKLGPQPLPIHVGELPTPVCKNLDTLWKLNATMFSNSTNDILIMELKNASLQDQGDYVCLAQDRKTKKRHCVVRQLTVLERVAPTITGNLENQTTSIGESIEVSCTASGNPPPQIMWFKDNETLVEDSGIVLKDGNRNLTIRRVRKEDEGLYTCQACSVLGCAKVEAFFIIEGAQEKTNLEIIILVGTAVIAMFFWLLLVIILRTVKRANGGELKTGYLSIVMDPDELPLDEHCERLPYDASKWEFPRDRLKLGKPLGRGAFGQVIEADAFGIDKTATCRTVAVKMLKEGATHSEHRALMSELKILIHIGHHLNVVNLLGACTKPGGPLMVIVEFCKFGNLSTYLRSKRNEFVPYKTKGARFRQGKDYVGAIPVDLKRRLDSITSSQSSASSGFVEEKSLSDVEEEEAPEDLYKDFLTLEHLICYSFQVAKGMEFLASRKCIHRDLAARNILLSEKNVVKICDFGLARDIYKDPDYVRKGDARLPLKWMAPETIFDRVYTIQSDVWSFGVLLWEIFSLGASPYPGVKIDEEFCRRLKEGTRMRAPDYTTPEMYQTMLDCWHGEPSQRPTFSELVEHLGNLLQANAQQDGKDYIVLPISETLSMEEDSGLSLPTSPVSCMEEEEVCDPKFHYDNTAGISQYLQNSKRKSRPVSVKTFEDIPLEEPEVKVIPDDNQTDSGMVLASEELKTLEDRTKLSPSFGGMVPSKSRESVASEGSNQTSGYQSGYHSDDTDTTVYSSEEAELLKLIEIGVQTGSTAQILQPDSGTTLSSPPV
Kind of experiment: KDR Kinase Assay (LanthaScreen TR-FRET enzymatic assay). The experiment is classed as biochemical. The conditions noted are these: 1.2 nM KDR, 92 μM ATP. Put shortly:
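TR-FRET enzymatic format: after 15-min room-temperature compound pretreatment, 1.2 nM human KDR phosphorylated 3 μM FAM-P22 with 92 μM ATP (HEPES pH 7.5, 28° C., one hour). Reactions were quenched with EDTA buffer. IC50 came from nonlinear sigmoid fits of percent-of-vehicle signal ratios.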

Experiment [3] relates to TT cells. Put plainly: TT Cell Proliferation Assay (WST-8, 8 days). To be noted: growth inhibition in TT cells, read-out: TT Cellular Activity. The experiment is classed as cell-based. A digest of the protocol: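 IC50 was derived from absorbance at 450 nm after 5 h with WST-8, following 8 days' incubation at 37 °C. Final compound levels spanned 0.0005–5 μM in 0.5% DMSO. TT cells were seeded at 6,000 per well in 10% FBS RPMI-1640 and left to attach for 24 h beforehand.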

Where two headings read alike, the source gives them in different places.

The source of these data is patent US20220220128A1, “HETEROCYCLIC COMPOUNDS AS KINASE INHIBITORS, COMPOSITIONS COMPRISING THE HETEROCYCLIC COMPOUND, AND METHODS OF USE THEREOF” (JS Innopharm (Shanghai) Ltd, priority 2019, published 2022).

T1 sequence (P07949 29-1114): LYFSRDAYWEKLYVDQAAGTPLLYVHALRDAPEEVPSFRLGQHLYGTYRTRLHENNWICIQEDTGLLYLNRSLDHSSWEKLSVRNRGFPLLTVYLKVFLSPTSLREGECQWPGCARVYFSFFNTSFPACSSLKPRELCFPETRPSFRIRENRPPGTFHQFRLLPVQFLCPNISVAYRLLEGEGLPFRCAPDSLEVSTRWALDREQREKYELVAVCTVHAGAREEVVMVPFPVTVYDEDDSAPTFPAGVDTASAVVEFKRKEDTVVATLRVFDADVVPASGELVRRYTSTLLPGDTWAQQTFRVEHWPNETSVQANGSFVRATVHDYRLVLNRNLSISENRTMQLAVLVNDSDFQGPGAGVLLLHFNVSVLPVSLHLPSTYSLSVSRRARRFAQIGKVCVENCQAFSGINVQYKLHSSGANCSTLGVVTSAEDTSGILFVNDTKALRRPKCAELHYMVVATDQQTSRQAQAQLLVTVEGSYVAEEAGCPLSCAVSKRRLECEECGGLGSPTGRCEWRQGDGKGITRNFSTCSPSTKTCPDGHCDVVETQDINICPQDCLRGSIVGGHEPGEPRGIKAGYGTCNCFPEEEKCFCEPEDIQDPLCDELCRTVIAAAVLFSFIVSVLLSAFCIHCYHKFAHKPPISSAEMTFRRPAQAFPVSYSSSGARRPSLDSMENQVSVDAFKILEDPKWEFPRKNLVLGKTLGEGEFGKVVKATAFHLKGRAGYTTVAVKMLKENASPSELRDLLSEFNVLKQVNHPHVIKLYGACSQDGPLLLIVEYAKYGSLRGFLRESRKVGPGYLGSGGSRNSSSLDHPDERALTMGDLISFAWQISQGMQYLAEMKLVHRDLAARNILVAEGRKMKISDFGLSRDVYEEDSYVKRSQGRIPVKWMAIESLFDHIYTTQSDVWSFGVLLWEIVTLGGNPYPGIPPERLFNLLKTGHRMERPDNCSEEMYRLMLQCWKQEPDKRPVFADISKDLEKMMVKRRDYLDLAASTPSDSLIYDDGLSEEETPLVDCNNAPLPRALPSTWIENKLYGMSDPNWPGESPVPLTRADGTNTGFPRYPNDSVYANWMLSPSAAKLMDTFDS

On to `CCOc1cc(-c2ccc(N3C[C@@H]4C[C@@](C)(NC(=O)c5ncccc5C(F)(F)F)C[C@@H]4C3)nc2)c2c(C#N)cnn2c1` [Example 65, N-((3aR,5s,6aS)-2-(5-(3-cyano-6-ethoxypyrazolo[1,5-a]pyridin-4-yl)pyridin-2-yl)-5-methyloctahydrocyclopenta[c]pyrrol-5-yl)-3-(trifluoromethyl)picolinamide], for which the IC50 in experiment [1] is at most 10 nM; in experiment [2], 50 to 100 nM; in experiment [3] (Homo sapiens, TT, 192 h), 10 to 50 nM.

As for `CCOc1cc(-c2ccc(N3C[C@@H]4C[C@@](C)(NC(=O)c5c(F)cccc5Cl)C[C@@H]4C3)nc2)c2c(C#N)cnn2c1` [Example 66, 2-chloro-N-((3aR,5s,6aS)-2-(5-(3-cyano-6-ethoxypyrazolo[1,5-a]pyridin-4-yl)pyridin-2-yl)-5-methyloctaliydrocyclopenta[c]pyrrol-5-yl)-6-fluorobenzamide], the IC50 in experiment [1] is at most 10 nM; in experiment [2], 50 to 100 nM; in experiment [3] (Homo sapiens, TT, 192 h), 10 to 50 nM.

For `CCOc1cc(-c2ccc(N3C[C@@H]4C[C@@](C)(NC(=O)c5nc(C)ccc5Cl)C[C@@H]4C3)nc2)c2c(C#N)cnn2c1` [Example 67, 3-chloro-N-((3aR,5s,6aS)-2-(5-(3-cyano-6-ethoxypyrazolo[1,5-a]pyridin-4-yl)pyridin-2-yl)-5-methyloctahydrocyclopenta[c]pyrrol-5-yl)-6-methylpicolinaniide], the IC50 in experiment [1] was at most 10 nM; in experiment [2], above 100 nM; in experiment [3] (Homo sapiens, TT, 192 h), 50 to 100 nM.

With `CCOc1cc(-c2ccc(N3C[C@@H]4C[C@@](C)(NC(=O)c5cc(F)ccc5Cl)C[C@@H]4C3)nc2)c2c(C#N)cnn2c1` [Example 68, 2-chloro-N-((3aR,5s,6aS)-2-(5-(3-cyano-6-ethoxypyrazolo[1,5-a]pyridin-4-yl)pyridin-2-yl)-5-methyloctahydrocyclopenta[c]pyrrol-5-yl)-5-fluorobenzamide], the IC50 is at most 10 nM in experiment [1]; 50 to 100 nM in experiment [2]; 10 to 50 nM in experiment [3] (Homo sapiens, TT, 192 h).

Regarding `CCOc1cc(-c2ccc(N3C[C@@H]4C[C@@](C)(NC(=O)c5cc(F)ccc5C)C[C@@H]4C3)nc2)c2c(C#N)cnn2c1` [Example 69, N-((3aR,5s,6aS)-2-(5-(3-cyano-6-ethoxypyrazolo[1,5-a]pyridin-4-yl)pyridin-2-yl)-5-methyloctahydrocyclopenta[c]pyrrol-5-yl)-5-fluoro-2-methylbenzamide], the IC50 in experiment [1] was at most 10 nM; in experiment [2] it was above 100 nM; in experiment [3] (Homo sapiens, TT, 192 h), at most 10 nM.

Consider `Cn1cc(-c2cc(-c3ccc(N4C[C@@H]5[C@@H](CNC(=O)OC(C)(C)C)[C@@H]5C4)nc3)c3c(C#N)cnn3c2)cn1` [Example 71, tert-butyl (((1R,5S,6s)-3-(5-(3-cyano-6-(1-methyl-1H-pyrazol-4-yl)pyrazolo[1,5-a]pyridin-4-yl)pyridin-2-yl)-3-azabicyclo[3.1.0]hexan-6-yl)methyl)carbamate], for which the IC50 in experiment [1] was at most 10 nM; in experiment [2] it was 10 to 50 nM; in experiment [3] (Homo sapiens, TT, 192 h), at most 10 nM.

Consider `Cn1cc(-c2cc(-c3ccc(N4C[C@@H]5[C@H](CNC(=O)OC(C)(C)C)[C@@H]5C4)nc3)c3c(C#N)cnn3c2)cn1` [Example 72, tert-butyl (((1R,5S,6r)-3-(5-(3-cyano-6-(1-methyl-1H-pyrazol-4-yl)pyrazolo[1,5-a]pyridin-4-yl)pyridin-2-yl)-3-azabicyclo[3.1.0]hexan-6-yl)methyl)carbamate], for which the IC50 in experiment [1] was at most 10 nM; in experiment [2] it was at most 10 nM; in experiment [3] (Homo sapiens, TT, 192 h) it was at most 10 nM.

Take `Cn1cc(-c2cc(-c3ccc(N4C[C@@H]5[C@@H](CNS(=O)(=O)c6c(F)cccc6Cl)[C@@H]5C4)nc3)c3c(C#N)cnn3c2)cn1` [Example 74, 2-chloro-N-(((1R,5S,6r)-3-(5-(3-cyano-6-(1-methyl-H-pyrazol-4-yl)pyrazolo[1,5-a]pyridin-4-yl)pyridin-2-yl)-3-azabicyclo[3.1.0]hexan-6-yl)methyl)-6-fluorobenzenesulfonamide]: the IC50 in experiment [1] was at most 10 nM; in experiment [2], 10 to 50 nM; in experiment [3] (Homo sapiens, TT, 192 h) it was 10 to 50 nM.

As to `Cn1cc(-c2cc(-c3ccc(N4C[C@@H]5[C@@H](CNC(=O)C(O)c6ccccc6)[C@@H]5C4)nc3)c3c(C#N)cnn3c2)cn1` (stereo partly drawn) [Example 76, N-(((1R,5S,6s)-3-(5-(3-cyano-6-(1-methyl-1H-pyrazol-4-yl)pyrazolo[1,5-a]pyridin-4-yl)pyridin-2-yl)-3-azabicyclo[3.1.0]hexan-6-yl)methyl)-2-hydroxy-2-phenylacetamide], the IC50 in experiment [1] was at most 10 nM; in experiment [2], at most 10 nM; in experiment [3] (Homo sapiens, TT, 192 h), 10 to 50 nM.

`CC(C)C(O)C(=O)NC[C@H]1[C@H]2CN(c3ccc(-c4cc(-c5cnn(C)c5)cn5ncc(C#N)c45)cn3)C[C@@H]12` (stereo partly drawn) [Example 77, N-(((1R,5S,6r)-3-(5-(3-cyano-6-(1-methyl-1H-pyrazol-4-yl)pyrazolo[1,5-a]pyridin-4-yl)pyridin-2-yl)-3-azabicyclo[3.1.0]hexan-6-yl)methyl)-2-hydroxy-3-methylbutanamide]: the IC50 in experiment [1] was at most 10 nM; in experiment [2], at most 10 nM; in experiment [3] (Homo sapiens, TT, 192 h), at most 10 nM.

For `Cn1cc(-c2cc(-c3ccc(N4C[C@@H]5[C@H](CNC(=O)c6ncccc6Cl)[C@@H]5C4)nc3)c3c(C#N)cnn3c2)cn1` [Example 78, 3-chloro-N-(((1R,5S,6r)-3-(5-(3-cyano-6-(1-methyl-1H-pyrazol-4-yl)pyrazolo[1,5-a]pyridin-4-yl)pyridin-2-yl)-3-azabicyclo[3.1.0]hexan-6-yl)methyl)picolinamide], the IC50 in experiment [1] is at most 10 nM; in experiment [2], at most 10 nM; in experiment [3] (Homo sapiens, TT, 192 h), at most 10 nM.

For `Cn1cc(-c2cc(-c3ccc(N4C[C@@H]5[C@H](CNC(=O)C(O)c6ccccc6)[C@@H]5C4)nc3)c3c(C#N)cnn3c2)cn1` (stereo partly drawn) [Example 79, N-(((1R,5S,6r)-3-(5-(3-cyano-6-(1-methyl-1H-pyrazol-4-yl)pyrazolo[1,5-a]pyridin-4-yl)pyridin-2-yl)-3-azabicyclo[3.1.0]hexan-6-yl)methyl)-2-hydroxy-2-phenylacetamide], the IC50 in experiment [1] is at most 10 nM; in experiment [2], at most 10 nM; in experiment [3] (Homo sapiens, TT, 192 h), at most 10 nM.

Turning to `Cn1cc(-c2cc(-c3ccc(N4C[C@@H]5[C@@H](CNC(=O)c6cc(F)ccc6Cl)[C@@H]5C4)nc3)c3c(C#N)cnn3c2)cn1` [Example 80, 2-chloro-N-(((1R,5S,6s)-3-(5-(3-cyano-6-(1-methyl-1H-pyrazol-4-yl)pyrazolo[1,5-a]pyridin-4-yl)pyridin-2-yl)-3-azabicyclo[3.1.0]hexan-6-yl)methyl)-5-fluorobenzamide], the IC50 in experiment [1] is at most 10 nM; in experiment [2], at most 10 nM; in experiment [3] (Homo sapiens, TT, 192 h) it was at most 10 nM.

With `Cc1ccc(F)cc1C(=O)NC[C@@H]1[C@H]2CN(c3ccc(-c4cc(-c5cnn(C)c5)cn5ncc(C#N)c45)cn3)C[C@@H]12` [Example 81, N-(((1R,5S,6s)-3-(5-(3-cyano-6-(1-methyl-1H-pyrazol-4-yl)pyrazolo[1,5-a]pyridin-4-yl)pyridin-2-yl)-3-azabicyclo[3.1.0]hexan-6-yl)methyl)-5-fluoro-2-methylbenzamide], the IC50 is at most 10 nM in experiment [1]; 10 to 50 nM in experiment [2]; at most 10 nM in experiment [3] (Homo sapiens, TT, 192 h).

For the compound `Cc1ccc(Cl)c(C(=O)NC[C@@H]2[C@H]3CN(c4ccc(-c5cc(-c6cnn(C)c6)cn6ncc(C#N)c56)cn4)C[C@@H]23)n1` [Example 82, 3-chloro-N-(((1R,5S,6s)-3-(5-(3-cyano-6-(1-methyl-1H-pyrazol-4-yl)pyrazolo[1.5-a]pyridin-4-yl)pyridin-2-yl)-3-azabicyclo[3.1.0]hexan-6-yl)methyl)-6-methylpicolinamide], the IC50 is at most 10 nM in experiment [1]; at most 10 nM in experiment [2]; at most 10 nM in experiment [3] (Homo sapiens, TT, 192 h).

Take `Cn1cc(-c2cc(-c3ccc(N4C[C@@H]5[C@@H](CNC(=O)c6c(F)cccc6Cl)[C@@H]5C4)nc3)c3c(C#N)cnn3c2)cn1` [Example 83, 2-chloro-N-(((1R,5S,6s)-3-(5-(3-cyano-6-(1-methyl-1H-pyrazol-4-yl)pyrazolo[1,5-a]pyridin-4-yl)pyridin-2-yl)-3-azabicyclo[3.1.0]hexan-6-yl)methyl)-6-fluorobenzamide]: the IC50 in experiment [1] is at most 10 nM; in experiment [2], 10 to 50 nM; in experiment [3] (Homo sapiens, TT, 192 h) it was at most 10 nM.

In the case of `Cc1cccc(Cl)c1C(=O)NC[C@@H]1[C@H]2CN(c3ccc(-c4cc(-c5cnn(C)c5)cn5ncc(C#N)c45)cn3)C[C@@H]12` [Example 84, 2-chloro-N-(((1R,5S,6s)-3-(5-(3-cyano-6-(1-methyl-1H-pyrazol-4-yl)pyrazolo[1,5-a]pyridin-4-yl)pyridin-2-yl)-3-azabicyclo[3.1.0]hexan-6-yl)methyl)-6-methylbenzamide], the IC50 in experiment [1], in experiment [2] and in experiment [3] was at most 10 nM throughout.

With `Cn1cc(-c2cc(-c3ccc(N4C[C@@H]5[C@@H](CNC(=O)c6ncc(F)cc6Cl)[C@@H]5C4)nc3)c3c(C#N)cnn3c2)cn1` [Example 85, 3-chloro-N-(((1R,5S,6s)-3-(5-(3-cyano-6-(1-methyl-1H-pyrazol-4-yl)pyrazolo[1,5-a]pyridin-4-yl)pyridin-2-yl)-3-azabicyclo[3.1.0]hexan-6-yl)methyl)-5-fluoropicolinamide], the IC50 in experiment [1] was at most 10 nM; in experiment [2] it was at most 10 nM; in experiment [3] (Homo sapiens, TT, 192 h), at most 10 nM.
